{
  "source": "patent US8461205B2",
  "about": "“Anthranilic acid derivatives” (Chelsea Therapeutics, Inc., priority 2007, dated 2013)",
  "key": {"cell proliferation": {"system": "cell proliferation", "conditions": "effect stated to be unrelated to DHODH inhibition; cited from earlier work"}, "DHODH": {"biological_target": "DHODH (Homo sapiens, UniProt Q02127)", "sequence (Q02127 whole entry, species assumed)": "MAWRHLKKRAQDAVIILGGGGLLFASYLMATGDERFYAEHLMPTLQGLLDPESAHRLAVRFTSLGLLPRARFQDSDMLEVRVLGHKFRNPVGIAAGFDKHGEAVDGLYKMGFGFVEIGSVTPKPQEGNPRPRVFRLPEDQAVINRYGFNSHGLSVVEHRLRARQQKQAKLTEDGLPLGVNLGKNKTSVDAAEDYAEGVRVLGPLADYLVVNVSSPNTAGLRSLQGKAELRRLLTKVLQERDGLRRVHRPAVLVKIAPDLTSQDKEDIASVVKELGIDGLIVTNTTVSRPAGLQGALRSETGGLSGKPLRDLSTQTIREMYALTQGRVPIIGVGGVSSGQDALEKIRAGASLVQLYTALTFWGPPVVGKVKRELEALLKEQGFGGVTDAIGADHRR", "test": "DHODH inhibition", "assay_type": "biochemical"}, "[1]": {"system": "human T lymphoblast cell line (Jurkat)", "test": "Inhibition of T-cell proliferation (Jurkat, 3H-TdR incorporation)", "assay_type": "cell-based", "conditions": "for IC50: Homo sapiens, Jurkat cells, 3 days culture, 3H-TdR pulse last 4 hours", "procedure": "Inhibition of T cell proliferation was studied in a functional assay. A human T lymphoblast cell line (Jurkat) was cultured in the presence and absence, respectively, of DHODH inhibiting compounds. Jurkat cells were seeded in microtiterplates at a concentration of 5×10^5/mL in RPMI 1640 growth media supplemented with ultraglutamin, 10% fetal calf serum, 1 mM sodium pyruvat, 10 mM HEPES and 0.1 mg/mL gentamycin. A dilution series of ten different concentrations of inhibitor was added to the wells and the plates were kept in a cell incubator for 3 days. At the beginning of the last 4 hours period, the cultures were pulsed with 10 μl/well 0.1 Ci/mmol 3H-TdR and then harvested on filter papers and counted with a ([…]. The IC50 values for each compound were calculated from the obtained dose response curves. Adding uridine to a concentration of about 50 μM in the wells monitored the specificity for the mechanism i.e., the inhibition of cell proliferation is due to DHODH inhibition and not to a general cell toxicity of the compounds. This addition of uridine reverses the anti-proliferative effect by bypassing the DHODH enzyme using an external source of pyrimidine. Results in respect of a number of compounds of the invention are reported as Jurkat IC50 (in μM) in Table 1.\n(§1) The inhibition of T cell proliferation was studied in a human T lymphoblast cell line (Jurkat). The IC50 value for each compound was calculated from the dose response curve. Adding uridine was used to monitor the specificity of the DHODH mechanism. The metabolic stability was studied in human liver microsomes. Table 1 exemplifies the invention, without limiting the scope thereof."}, "[2]": {"test": "Metabolic stability in human liver microsomes", "assay_type": "in vitro ADME", "conditions": "for half-life at 0.5 μM: human liver microsomes, 0.5 μM compound, 1 mg/mL protein, 1 mM NADPH, pH 7.4, 37° C., \"stable\" = no degradation could be confirmed", "procedure": "The metabolic stability of the test compounds was determined using human liver microsomes. Incubations were performed with a compound concentration of 0.5 μM and a protein concentration of 1 mg/mL in 50 mM sodium phosphate buffer at physiological pH (7.4) and temperature (37° C.). The incubation mixture was preincubated at 37° C. prior to addition of NADPH (1 mM, final concentration). At several time points during 60 minutes, aliquots were removed and added to a 96 well plate placed on dry ice and deep-frozen. Samples were analyzed with LC-MS for concentration of parent compound. From the slope of the log [parent compound] vs. incubation time regression line, the in vitro half-life […] was determined. The intrinsic clearance (CLint) can be calculated using a modified Michaelis-Menten relationship, i.e., CLint=ln 2/t1/2. The CLint can then be converted to CL by using the well-stirred model of hepatic extraction. A value of 1.24 L/h/kg of the hepatic blood flow in man can be used. Results with respect to a number of compounds of the invention are reported as t1/2 (in minutes) in Table 1.\nas §1"}},
  "data": [
    {"smiles": "COC(=O)c1cc(OCc2cc(OC)ccc2OC)ccc1NC(C)=O", "note": "[2-acetylamino-5-(2,5-dimethoxy-benzyloxy)-benzoic acid methyl ester]", "values": [
      {"measurement": "inhibition of cell proliferation (in words)", "setting": "cell proliferation", "result": "inhibits cell proliferation"}
    ]},
    {"smiles": "COc1ccc(OC)c(COc2ccc(O)c(C(=O)O)c2)c1", "note": "[5-(2,5-dimethoxy-benzyloxy)-2-hydroxy-benzoic acid]", "values": [
      {"measurement": "activity as DHODH inhibitor (in words)", "setting": "DHODH", "result": "inactive"}
    ]},
    {"smiles": "CCC(=O)Nc1ccc(/C=C/c2ccc(Cl)c(Cl)c2)cc1C(=O)O", "note": "[INV 27, 5-[(E)-2-(3,4-Dichloro-phenyl)-vinyl]-2-propionylamino-benzoic acid]", "values": [
      {"measurement": "IC50", "setting": "[1]", "result": 480, "unit": "nM"},
      {"measurement": "half-life at 0.5 μM", "setting": "[2]", "result": 1.92, "unit": "h"}
    ]},
    {"smiles": "CCC(=O)Nc1ccc(OCc2ccc(Cl)cc2C(F)(F)F)cc1C(=O)O", "note": "[INV 29, 5-(4-Chloro-2-trifluoromethyl-benzyloxy)-2-propionylamino-benzoic acid]", "values": [
      {"measurement": "IC50", "setting": "[1]", "result": 570, "unit": "nM"},
      {"measurement": "half-life at 0.5 μM", "setting": "[2]", "result": 1.83, "unit": "h"}
    ]},
    {"smiles": "CCC(=O)Nc1ccc(OCc2ccc(C(F)(F)F)cc2Br)cc1C(=O)O", "note": "[INV 30, 5-(2-Bromo-4-trifluoromethyl-benzyloxy)-2-propionylamino-benzoic acid]", "values": [
      {"measurement": "IC50", "setting": "[1]", "result": 590, "unit": "nM"},
      {"measurement": "half-life at 0.5 μM", "setting": "[2]", "result": 3.18, "unit": "h"}
    ]},
    {"smiles": "O=C(O)c1cc(OCc2ccc(Br)cc2C(F)(F)F)ccc1NC(=O)C1CC1", "note": "[INV 31, 5-(4-Bromo-2-trifluoromethyl-benzyloxy)-2-(cyclopropanecarbonyl-amino)-benzoic acid]", "values": [
      {"measurement": "IC50", "setting": "[1]", "result": 420, "unit": "nM"},
      {"measurement": "half-life at 0.5 μM", "setting": "[2]", "result": 3.87, "unit": "h"}
    ]},
    {"smiles": "COc1ccc(OC)c(COc2ccc(NC(C)=O)c(C(=O)O)c2)c1", "note": "[REF 8, 2-acetylamino-5-(2,5-dimethoxy-benzyloxy)-benzoic acid, reference compound]", "values": [
      {"measurement": "IC50", "setting": "[1]", "result": 6200, "unit": "nM"},
      {"measurement": "inhibitory effect on T-cell proliferation (in words)", "setting": "[1]; Jurkat, cf. Table 1", "result": "only a weak inhibitory effect"},
      {"measurement": "oxidation half-life / stability towards oxidation by human P450 (in words)", "setting": "[2]; human in vitro system, cf. Table 1", "result": "short half-life"}
    ]}
  ]
}
